Laboratory results from ChEMBL document CHEMBL1201862, “PubChem BioAssay data set” (2004).
The source made the active and inactive calls.

Columns and labels:
[1] = target: T1, Heat shock 70 kDa protein 1A (Homo sapiens, UniProt P0DMV8); experiment: small-molecule inhibition of Hsp70 – biochemical, TR-FRET (AID 786)
[2] = target: T2, Endoribonuclease toxin MazF (Escherichia coli K-12, UniProt P0AE70); experiment: activation of MazEF endoribonuclease cleavage – biochemical, fluorescence, single-stranded RNA substrate, uHTS hits, dose response (AID 588481); assay type: functional
T2 sequence (P0AE70 whole entry): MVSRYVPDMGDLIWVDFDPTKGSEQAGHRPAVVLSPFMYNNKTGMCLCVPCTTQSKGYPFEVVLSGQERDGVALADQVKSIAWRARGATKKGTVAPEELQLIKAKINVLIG

[3] = target: T3, RNA-binding protein pos-1 (Caenorhabditis elegans, UniProt G5EF15); experiment: disruptors of C. elegans POS-1 RNA interaction – biochemical, fluorescence polarization, dose response (AID 1964);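 note: purified POS-1 fused to maltose binding protein made in E. coli; potency of compounds blocking POS-1 binding to fluorescent RNA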
T3 sequence (G5EF15 whole entry): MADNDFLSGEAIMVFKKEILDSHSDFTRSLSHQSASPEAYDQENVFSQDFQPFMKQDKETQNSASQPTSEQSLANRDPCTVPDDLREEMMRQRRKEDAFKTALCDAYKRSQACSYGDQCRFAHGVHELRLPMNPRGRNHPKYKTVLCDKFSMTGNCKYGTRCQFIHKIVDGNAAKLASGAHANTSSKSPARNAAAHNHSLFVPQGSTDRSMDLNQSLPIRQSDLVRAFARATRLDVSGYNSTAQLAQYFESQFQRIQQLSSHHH

[4] = target: T1, Heat shock 70 kDa protein 1A; experiment: small molecules displacing fluorescent ligand from Hsp70 – biochemical, fluorescence polarization, primary screen (AID 583)
[5] = target: T4, Zinc finger protein mex-5 (Caenorhabditis elegans, UniProt Q9XUB2); experiment: potency of MEX-5 RNA-binding blockers – biochemical, C. elegans, fluorescence polarization, dose response (AID 1960)
T4 sequence (Q9XUB2 whole entry): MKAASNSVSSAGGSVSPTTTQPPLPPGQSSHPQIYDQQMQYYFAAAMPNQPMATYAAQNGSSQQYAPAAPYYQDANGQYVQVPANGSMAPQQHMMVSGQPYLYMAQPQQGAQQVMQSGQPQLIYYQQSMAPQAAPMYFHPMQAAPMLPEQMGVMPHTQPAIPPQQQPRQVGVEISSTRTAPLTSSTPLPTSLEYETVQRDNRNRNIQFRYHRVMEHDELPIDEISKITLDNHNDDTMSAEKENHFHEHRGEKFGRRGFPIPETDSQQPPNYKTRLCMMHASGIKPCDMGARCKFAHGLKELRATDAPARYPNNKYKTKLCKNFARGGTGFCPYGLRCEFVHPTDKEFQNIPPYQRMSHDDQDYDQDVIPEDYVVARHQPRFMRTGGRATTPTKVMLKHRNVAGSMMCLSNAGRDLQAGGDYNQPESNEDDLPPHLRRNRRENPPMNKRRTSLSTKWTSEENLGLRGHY

[6] = target: T2, Endoribonuclease toxin MazF; experiment: substrate-only fluorescence increase artefacts – biochemical, single-stranded RNase substrate, counter-screen for MazEF activator project, dose response (AID 588502); assay type: functional
[7] = Trypanosoma cruzi growth suppression in host cells – NIH3T3 host cells, beta-gal luminescence, confirmation (AID 2044); assay type: functional, cell-based;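 note: intracellular parasites grown in NIH/3T3 mouse fibroblasts as host cells; luminescent beta-galactosidase reporter signal from transgenic T. cruzi replicating inside host cells; inhibitors lower the luminescence signal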
[8] = target: T5, Caspase-6 (Homo sapiens, UniProt P55212); experiment: inhibition of CASP6 peptide cleavage – biochemical, VEID-R110 fluorescence, cherry-pick, dose response (AID 720632)
T5 sequence (P55212 whole entry): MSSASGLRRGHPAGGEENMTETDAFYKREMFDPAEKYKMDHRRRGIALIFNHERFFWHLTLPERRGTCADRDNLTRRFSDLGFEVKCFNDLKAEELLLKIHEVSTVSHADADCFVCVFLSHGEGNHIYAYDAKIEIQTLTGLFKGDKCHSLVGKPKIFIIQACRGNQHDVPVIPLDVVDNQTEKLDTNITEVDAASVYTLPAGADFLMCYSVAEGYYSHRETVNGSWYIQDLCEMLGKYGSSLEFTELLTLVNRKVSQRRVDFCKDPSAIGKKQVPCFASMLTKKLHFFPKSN

[9] = luciferase reporter signal suppression in cells – H4 neuroglioma cells, luminescence, dose response (AID 1990); assay type: functional, cell-based
[10] = Luminescence Cell-Based Dose Response HTS to Identify Inhibitors of 5'UTR Stem-Loop Driven Prion Protein mRNA Translation in H4 Neuroglioblastoma Cells. [Related pubchem assays: 1827 (Project Summary), 1813 (Primary HTS)]; assay type: functional
[11] = NIH3T3 cell viability loss – ATP luminescence, mouse fibroblasts, counter-screen, dose response (AID 2010); assay type: functional, cell-based;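 note: cells exposed to compound for about 90 hours before reading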
[12] = alpha-synuclein stem-loop luciferase translation blockers – H4 neuroglioma cells, luminescence, confirmation (AID 1988); assay type: functional, cell-based
[13] = Luminescence-based counterscreen assay for KLF5 inhibitors: dose response cell-based high throughput screening assay to identify cytotoxic compounds using the IEC-6 intestinal epithelial cell line. [Related pubchem assays: 1700 (Primary screen.), 1834 (Confirmation screen.), 1858 (Summary AID.), 1905 (Counterscreen.)]; assay type: functional
[14] = NIH-3T3 fibroblast cytotoxicity, dose response, cytotoxicity control, cell-based, fluorescence, Alamar Blue, secondary assay (AID 2327); assay type: functional;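 note: NIH-3T3 mouse fibroblasts cultured with fluconazole at 8 µg/mL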
[15] = system: INS1; experiment: INS-1E survival protection against cytokine death – cell-based, luminescence, retest, dose response (AID 449756); assay type: functional; settings: Rattus norvegicus;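 note: cell death triggered by IL-1 beta plus TNF-alpha plus IFN-gamma mixture; protective hits raise ATP signal compared with cytokine alone wells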
[16] = fluconazole-exposed Candida albicans growth modulators – fluorescence, retest, confirmation (AID 2467); assay type: functional, cell-based
[17] = target: Nonstructural protein 1 (Influenza A virus, UniProt Q194T2); assay type: functional, Influenza A virus (A/California/07/2009(H1N1))
Nonstructural protein 1, sequence (Q194T2 whole entry): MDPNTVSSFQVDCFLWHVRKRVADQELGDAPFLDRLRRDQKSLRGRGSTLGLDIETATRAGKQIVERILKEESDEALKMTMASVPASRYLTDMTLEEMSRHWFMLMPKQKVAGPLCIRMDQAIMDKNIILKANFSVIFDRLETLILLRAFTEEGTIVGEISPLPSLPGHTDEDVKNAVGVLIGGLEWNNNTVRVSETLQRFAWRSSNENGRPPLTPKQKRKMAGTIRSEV

[18] = system: BJ; experiment: BJ-TERT-LT-ST fibroblast viability loss – cell-based, RAS-independent, luminescence, dose response (AID 1935); assay type: functional; settings: Homo sapiens;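 note: BJ fibroblasts immortalized with TERT plus LT and ST oncogenes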
[19] = target: Wee1-like protein kinase (Homo sapiens, UniProt P30291); experiment: Dose Response Cell-based Assay for Inhibitors of Wee1 Degradation. [Related pubchem assays: 1410, 1321 ]; assay type: functional
Wee1-like protein kinase, sequence (P30291 whole entry): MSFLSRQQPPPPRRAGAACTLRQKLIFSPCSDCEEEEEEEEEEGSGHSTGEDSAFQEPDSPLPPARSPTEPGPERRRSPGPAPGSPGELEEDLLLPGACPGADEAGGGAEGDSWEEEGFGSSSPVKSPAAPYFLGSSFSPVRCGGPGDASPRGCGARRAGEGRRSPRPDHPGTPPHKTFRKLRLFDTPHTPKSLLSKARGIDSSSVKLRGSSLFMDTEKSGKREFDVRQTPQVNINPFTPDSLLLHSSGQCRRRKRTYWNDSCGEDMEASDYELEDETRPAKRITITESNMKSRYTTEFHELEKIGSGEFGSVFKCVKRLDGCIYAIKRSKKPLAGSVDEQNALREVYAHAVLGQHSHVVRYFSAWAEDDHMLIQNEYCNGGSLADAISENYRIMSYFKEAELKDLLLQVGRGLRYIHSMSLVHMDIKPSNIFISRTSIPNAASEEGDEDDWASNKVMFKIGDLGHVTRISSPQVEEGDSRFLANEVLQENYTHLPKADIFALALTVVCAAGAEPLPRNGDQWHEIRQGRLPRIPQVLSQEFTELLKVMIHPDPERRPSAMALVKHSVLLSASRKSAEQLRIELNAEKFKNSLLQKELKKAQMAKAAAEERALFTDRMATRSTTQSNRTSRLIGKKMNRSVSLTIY

[20] = DRD fibroblast viability loss – cell-based, non-viral oncogenic, luminescence, dose response (AID 1934); assay type: functional; settings: Homo sapiens
[21] = target: E3 ubiquitin-protein ligase Mdm2 (Homo sapiens, UniProt Q00987); experiment: MDM2-luc reporter signal enhancers, multi-concentration potency testing, MDM2 ubiquitin-protein ligase inhibitor program, whole-cell format, luminescence detection, 384-well microplate (AID 1394); assay type: functional;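 note: MDM2 E3 inhibitors raise luminescence so EC50 is for signal enhancement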
E3 ubiquitin-protein ligase Mdm2, sequence (Q00987 whole entry): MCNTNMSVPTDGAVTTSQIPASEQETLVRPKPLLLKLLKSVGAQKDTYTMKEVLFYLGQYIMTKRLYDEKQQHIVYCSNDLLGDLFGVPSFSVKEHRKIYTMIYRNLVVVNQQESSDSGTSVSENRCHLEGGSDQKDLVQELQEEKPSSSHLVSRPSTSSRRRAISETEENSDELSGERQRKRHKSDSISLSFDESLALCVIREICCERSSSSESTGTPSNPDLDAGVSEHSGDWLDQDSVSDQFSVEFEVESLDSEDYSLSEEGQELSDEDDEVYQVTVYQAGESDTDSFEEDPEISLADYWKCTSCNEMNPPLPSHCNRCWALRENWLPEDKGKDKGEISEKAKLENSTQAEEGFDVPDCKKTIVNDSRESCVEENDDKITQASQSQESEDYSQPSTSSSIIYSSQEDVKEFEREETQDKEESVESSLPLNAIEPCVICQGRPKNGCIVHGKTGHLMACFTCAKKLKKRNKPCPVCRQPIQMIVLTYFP

[22] = target: T6, Replicative DNA helicase DnaB (Mycobacterium tuberculosis, UniProt P9WMR3); experiment: DnaB intein splicing inhibitors, dose response, biochemical, cell-free fluorescence (AID 449749); assay type: functional
T6 sequence (P9WMR3 whole entry): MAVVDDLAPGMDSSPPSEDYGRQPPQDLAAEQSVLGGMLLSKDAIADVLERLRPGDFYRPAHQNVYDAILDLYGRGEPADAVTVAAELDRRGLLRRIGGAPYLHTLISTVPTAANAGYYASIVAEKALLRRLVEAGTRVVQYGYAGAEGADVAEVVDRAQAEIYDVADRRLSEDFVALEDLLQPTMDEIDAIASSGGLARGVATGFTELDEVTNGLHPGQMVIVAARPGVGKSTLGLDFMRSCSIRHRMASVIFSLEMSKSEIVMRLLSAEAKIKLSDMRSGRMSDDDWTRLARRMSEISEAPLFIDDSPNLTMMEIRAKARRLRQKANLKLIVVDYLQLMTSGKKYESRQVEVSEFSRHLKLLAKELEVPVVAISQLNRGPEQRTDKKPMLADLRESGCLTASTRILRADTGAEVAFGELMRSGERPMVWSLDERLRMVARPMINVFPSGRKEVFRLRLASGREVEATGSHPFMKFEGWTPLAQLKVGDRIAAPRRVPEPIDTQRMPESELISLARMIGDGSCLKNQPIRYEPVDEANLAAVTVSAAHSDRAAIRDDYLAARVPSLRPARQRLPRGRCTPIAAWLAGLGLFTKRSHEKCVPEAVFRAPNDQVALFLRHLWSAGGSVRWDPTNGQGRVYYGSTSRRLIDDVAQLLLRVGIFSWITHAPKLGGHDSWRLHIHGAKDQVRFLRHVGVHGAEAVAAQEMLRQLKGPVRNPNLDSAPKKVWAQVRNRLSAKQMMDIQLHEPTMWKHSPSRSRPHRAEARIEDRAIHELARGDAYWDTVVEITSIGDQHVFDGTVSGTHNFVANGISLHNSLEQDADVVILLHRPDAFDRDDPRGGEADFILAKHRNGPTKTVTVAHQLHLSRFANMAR

[23] = target: G2/mitotic-specific cyclin-B1 (Homo sapiens, UniProt P14635); experiment: Counterscreen assay for inhibitors of Wee1 degradation: dose response cell-based assay to identify inhibitors of cyclin B degradation. [Related pubchem assays: 1410, 1321 ]; assay type: functional
G2/mitotic-specific cyclin-B1, sequence (P14635 whole entry): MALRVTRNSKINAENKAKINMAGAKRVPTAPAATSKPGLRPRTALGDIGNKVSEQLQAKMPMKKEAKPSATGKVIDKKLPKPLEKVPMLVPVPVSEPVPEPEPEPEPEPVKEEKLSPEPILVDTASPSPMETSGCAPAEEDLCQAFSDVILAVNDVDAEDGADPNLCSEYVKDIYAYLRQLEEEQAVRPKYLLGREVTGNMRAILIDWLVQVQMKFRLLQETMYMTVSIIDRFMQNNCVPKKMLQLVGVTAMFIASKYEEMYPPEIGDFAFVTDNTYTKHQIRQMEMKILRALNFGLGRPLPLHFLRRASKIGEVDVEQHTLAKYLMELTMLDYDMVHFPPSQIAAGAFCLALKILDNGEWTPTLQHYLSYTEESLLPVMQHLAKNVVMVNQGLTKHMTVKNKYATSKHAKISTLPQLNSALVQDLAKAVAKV

[24] = target: T7, Protein RecA (Mycobacterium tuberculosis, UniProt P9WHJ3); experiment: Fluorescence Cell-Free Homogeneous Dose Retest to Identify Inhibitors of RecA-Intein Splicing Activity. [Related pubchem assays (depositor defined):AID2097, AID2223, AID489010, AID492950]; assay type: functional
T7 sequence (P9WHJ3 whole entry): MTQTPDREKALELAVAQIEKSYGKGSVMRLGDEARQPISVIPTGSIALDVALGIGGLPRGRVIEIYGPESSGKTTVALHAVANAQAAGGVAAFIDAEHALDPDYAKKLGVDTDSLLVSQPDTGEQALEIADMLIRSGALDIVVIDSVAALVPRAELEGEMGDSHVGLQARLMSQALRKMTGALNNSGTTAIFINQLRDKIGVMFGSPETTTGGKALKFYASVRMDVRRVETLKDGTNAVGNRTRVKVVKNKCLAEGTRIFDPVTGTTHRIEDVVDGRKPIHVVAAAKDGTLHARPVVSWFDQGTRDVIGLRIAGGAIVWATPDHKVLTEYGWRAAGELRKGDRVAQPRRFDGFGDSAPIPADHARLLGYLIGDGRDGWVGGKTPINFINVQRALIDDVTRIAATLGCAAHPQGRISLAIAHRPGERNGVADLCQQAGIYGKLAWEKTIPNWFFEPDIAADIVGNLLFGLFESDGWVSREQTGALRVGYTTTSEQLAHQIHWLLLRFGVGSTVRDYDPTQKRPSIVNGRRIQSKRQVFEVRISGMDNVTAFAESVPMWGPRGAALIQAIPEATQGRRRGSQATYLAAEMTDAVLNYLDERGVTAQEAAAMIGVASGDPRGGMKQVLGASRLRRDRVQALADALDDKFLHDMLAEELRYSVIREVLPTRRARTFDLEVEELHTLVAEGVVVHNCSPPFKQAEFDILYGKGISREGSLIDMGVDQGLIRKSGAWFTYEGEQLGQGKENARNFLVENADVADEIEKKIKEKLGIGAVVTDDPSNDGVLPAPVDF

[25] = system: BJ; experiment: cells; assay type: functional, cell-based; settings: Homo sapiens
[26] = target: T8, Neuropeptide Y receptor type 1 (Homo sapiens, UniProt P25929); experiment: Fluorescence-based counterscreen for agonists of NPY-Y2: cell-based high-throughput dose response assay for agonists of NPY-Y1.; assay type: functional
T8 sequence (P25929 whole entry): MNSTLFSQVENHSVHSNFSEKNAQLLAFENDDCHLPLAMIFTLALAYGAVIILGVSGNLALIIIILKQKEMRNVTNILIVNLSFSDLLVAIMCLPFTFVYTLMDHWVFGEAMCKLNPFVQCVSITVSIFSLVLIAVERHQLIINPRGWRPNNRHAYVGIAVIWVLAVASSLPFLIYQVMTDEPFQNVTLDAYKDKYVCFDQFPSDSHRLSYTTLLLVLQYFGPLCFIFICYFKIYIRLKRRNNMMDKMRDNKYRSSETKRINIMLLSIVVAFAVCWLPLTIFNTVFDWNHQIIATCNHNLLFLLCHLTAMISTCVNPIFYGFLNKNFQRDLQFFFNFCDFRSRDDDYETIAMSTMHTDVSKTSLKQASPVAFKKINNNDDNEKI

[27] = system: HEK293; experiment: Fluorescence-based counterscreen for potentiators or agonists of NPY-Y2: cell-based high-throughput dose response assay to identify inhibitors of cyclic nucleotide gated ion channel (CNGC) activity. In this assay, the parental HEK293 cell line transfected with a cyclic-nucleotide gated ion channel (CNGC)-based cAMP sensor is used to measure inhibition of isoproterenol-induced CNGC activity by test compound.; assay type: functional; settings: Homo sapiens;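 note: stimulus is 1 µM isoproterenol at EC100 plus PDE inhibitor Ro 20-1724 at 25 µM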
[28] = target: T9, Neuropeptide Y receptor type 2 (Homo sapiens, UniProt P49146); experiment: Fluorescence-based cell-based high-throughput dose response assay for agonists of NPY-Y2. [Related pubchem assays: 1703 (Screening assay (CNGC inhibitors).), 1359 (Screening assay (NPY-Y2 potentiators or agonists).), 1304 (Screening assay (NPY-Y1 potentiators or agonists).), 1710 (Screening assay (NPY-Y2 agonists).), 1791 (Summary AID.)]; assay type: functional
T9 sequence (P49146 whole entry): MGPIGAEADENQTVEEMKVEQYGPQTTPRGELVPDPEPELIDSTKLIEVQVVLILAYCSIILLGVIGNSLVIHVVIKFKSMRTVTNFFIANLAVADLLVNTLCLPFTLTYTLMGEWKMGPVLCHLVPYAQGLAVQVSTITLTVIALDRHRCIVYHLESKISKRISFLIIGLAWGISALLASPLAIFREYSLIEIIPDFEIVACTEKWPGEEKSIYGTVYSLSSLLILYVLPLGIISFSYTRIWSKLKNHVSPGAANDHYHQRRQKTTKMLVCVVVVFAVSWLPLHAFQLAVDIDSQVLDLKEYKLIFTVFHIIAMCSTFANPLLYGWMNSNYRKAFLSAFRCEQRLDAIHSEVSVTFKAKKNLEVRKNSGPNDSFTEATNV

T1 sequence (P0DMV8 whole entry): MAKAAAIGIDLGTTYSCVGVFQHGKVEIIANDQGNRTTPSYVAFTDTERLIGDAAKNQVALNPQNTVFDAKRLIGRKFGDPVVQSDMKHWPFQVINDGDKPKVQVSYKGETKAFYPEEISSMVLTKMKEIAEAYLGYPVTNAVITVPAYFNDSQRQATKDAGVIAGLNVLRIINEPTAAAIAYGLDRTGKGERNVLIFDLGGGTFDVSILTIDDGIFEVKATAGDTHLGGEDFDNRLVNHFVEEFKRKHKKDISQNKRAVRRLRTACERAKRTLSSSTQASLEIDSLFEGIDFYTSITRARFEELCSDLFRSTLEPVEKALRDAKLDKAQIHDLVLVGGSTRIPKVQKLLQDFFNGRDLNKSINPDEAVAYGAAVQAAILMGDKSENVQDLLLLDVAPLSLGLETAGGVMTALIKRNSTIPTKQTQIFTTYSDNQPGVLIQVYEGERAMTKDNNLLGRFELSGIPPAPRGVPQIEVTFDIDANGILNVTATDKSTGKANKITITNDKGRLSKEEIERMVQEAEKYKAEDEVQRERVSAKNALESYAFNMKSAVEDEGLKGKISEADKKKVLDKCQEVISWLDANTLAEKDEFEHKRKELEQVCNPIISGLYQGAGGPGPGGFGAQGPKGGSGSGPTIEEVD

CCOn1c(=O)c(-c2cc3ccccc3o2)[n+]([O-])c2ccccc21
inactive: EC50 [2] > 99 µM | EC50 [6] 30.9 µM
inconclusive: EC50 [3] 13.4 µM | EC50 [5] 180 µM
> 100 µM (not active): IC50 [1] | IC50 [4]

NS(=O)(=O)c1ccc(N=Nc2ccc(O)c3ncccc23)cc1
10.7 µM (not active): IC50 [13]
active: EC50 [7] 4.07 µM | AC50 [8] 1.58 µM | EC50 [9] 9.04 µM | EC50 [10] 8.29 µM | EC50 [11] 10.4 µM | EC50 [12] 5.67 µM | EC50 [14] 32.2 µM | AC50 [15] 3.45 µM | EC50 [16] 1.95 µM | IC50 [17] 7.62 µM

CCOC(=O)C1=C(c2ccccc2)O/C(=C(/C#N)C(F)(F)F)S1
active: EC50 [7] 2.37 µM | EC50 [19] > 1.84 µM | EC50 [11] 4.88 µM | EC50 [21] 0.84 µM | EC50 [23] > 1.84 µM | EC50 [24] 0.723 µM
inconclusive: EC50 [18] 5.47 µM | EC50 [20] 6.24 µM | EC50 [25] 4.58 µM
inactive: AC50 [22] > 380 µM

O=C(Cc1ccc(Cl)cc1)Nc1cccc(S(=O)(=O)Nc2ccccc2F)c1
10.2 µM (not active): EC50 [27]
15.7 µM (not active): EC50 [26] | EC50 [28]
